# Measured values reported in PubChem BioAssay (NCI).
#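 A five-concentration, 48-hour dose response in 96-well plates underlies each endpoint, interpolated linearly between surrounding concentrations. TGI marks complete inhibition of growth.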
# Columns and labels:
# Assay in all cases: DTP human tumour cell line panel, 48 h
# 786-0 renal = test system: 786-0 renal
# A498 renal = test system: A498 renal
# A549 NSCLC = test system: A549 NSCLC
# ACHN renal = test system: ACHN renal
# BT-549 breast = test system: BT-549 breast
# CAKI-1 renal = test system: CAKI-1 renal
# CCRF-CEM leukemia = test system: CCRF-CEM leukemia
# COLO 205 colon = test system: COLO 205 colon
# DU-145 prostate = test system: DU-145 prostate
# EKVX NSCLC = test system: EKVX NSCLC
# HCC-2998 colon = test system: HCC-2998 colon
# HCT-116 colon = test system: HCT-116 colon
# HCT-15 colon = test system: HCT-15 colon
# HL-60(TB) leukemia = test system: HL-60(TB) leukemia
# HOP-62 NSCLC = test system: HOP-62 NSCLC
# HOP-92 NSCLC = test system: HOP-92 NSCLC
# HS 578T breast = test system: HS 578T breast
# HT29 colon = test system: HT29 colon
# IGROV1 ovarian = test system: IGROV1 ovarian
# K-562 leukemia = test system: K-562 leukemia
# KM12 colon = test system: KM12 colon
# LOX IMVI melanoma = test system: LOX IMVI melanoma
# M14 melanoma = test system: M14 melanoma
# MALME-3M melanoma = test system: MALME-3M melanoma
# MCF7 breast = test system: MCF7 breast
# MDA-MB-231 breast = test system: MDA-MB-231 breast
# MDA-MB-435 = test system: MDA-MB-435
# MDA-N = test system: MDA-N
# MOLT-4 leukemia = test system: MOLT-4 leukemia
# NCI-H226 lung = test system: NCI-H226 lung
# NCI-H23 lung = test system: NCI-H23 lung
# NCI-H460 lung = test system: NCI-H460 lung
# NCI-H522 lung = test system: NCI-H522 lung
# NCI/ADR-RES ovarian = test system: NCI/ADR-RES ovarian
# OVCAR-3 ovarian = test system: OVCAR-3 ovarian
# OVCAR-4 ovarian = test system: OVCAR-4 ovarian
# OVCAR-5 ovarian = test system: OVCAR-5 ovarian
# OVCAR-8 ovarian = test system: OVCAR-8 ovarian
# PC-3 prostate = test system: PC-3 prostate
# RPMI-8226 leukemia = test system: RPMI-8226 leukemia
# SF-268 CNS = test system: SF-268 CNS
# SF-295 CNS = test system: SF-295 CNS
# SF-539 CNS = test system: SF-539 CNS
# SK-MEL-2 melanoma = test system: SK-MEL-2 melanoma
# SK-MEL-28 melanoma = test system: SK-MEL-28 melanoma
# SK-MEL-5 melanoma = test system: SK-MEL-5 melanoma
# SK-OV-3 ovarian = test system: SK-OV-3 ovarian
# SN12C renal = test system: SN12C renal
# SNB-19 CNS = test system: SNB-19 CNS
# SR leukemia = test system: SR leukemia
# SW-620 colon = test system: SW-620 colon
# T-47D breast = test system: T-47D breast
# TK-10 renal = test system: TK-10 renal
# U251 CNS = test system: U251 CNS
# UACC-257 melanoma = test system: UACC-257 melanoma
# UACC-62 melanoma = test system: UACC-62 melanoma
# UO-31 renal = test system: UO-31 renal
# RXF 393 renal = test system: RXF 393 renal
# SNB-75 CNS = test system: SNB-75 CNS
smiles,measurement,setting,value
CCCCCCCSCC(O)COC(c1ccccc1)(c1ccccc1)c1ccccc1 (centres undefined),TGI,786-0 renal,> 100 µM
same,TGI,A498 renal,> 100 µM
same,TGI,A549 NSCLC,> 100 µM
same,TGI,ACHN renal,76.3 µM
same,TGI,BT-549 breast,> 100 µM
same,TGI,CAKI-1 renal,> 100 µM
same,TGI,CCRF-CEM leukemia,> 100 µM
same,TGI,COLO 205 colon,> 100 µM
same,TGI,DU-145 prostate,> 100 µM
same,TGI,EKVX NSCLC,> 100 µM
same,TGI,HCC-2998 colon,> 100 µM
same,TGI,HCT-116 colon,> 100 µM
same,TGI,HCT-15 colon,> 100 µM
same,TGI,HL-60(TB) leukemia,63.9 µM
same,TGI,HOP-62 NSCLC,> 100 µM
same,TGI,HOP-92 NSCLC,> 100 µM
same,TGI,HS 578T breast,50.1 µM
same,TGI,HT29 colon,68.5 µM
same,TGI,IGROV1 ovarian,> 100 µM
same,TGI,K-562 leukemia,> 100 µM
same,TGI,KM12 colon,16.9 µM
same,TGI,LOX IMVI melanoma,> 100 µM
same,TGI,M14 melanoma,> 100 µM
same,TGI,MALME-3M melanoma,> 100 µM
same,TGI,MCF7 breast,> 100 µM
same,TGI,MDA-MB-231 breast,> 100 µM
same,TGI,MDA-MB-435,> 100 µM
same,TGI,MDA-N,> 100 µM
same,TGI,MOLT-4 leukemia,> 100 µM
same,TGI,NCI-H226 lung,85 µM
same,TGI,NCI-H23 lung,60.3 µM
same,TGI,NCI-H460 lung,> 100 µM
same,TGI,NCI-H522 lung,> 100 µM
same,TGI,NCI/ADR-RES ovarian,> 100 µM
same,TGI,OVCAR-3 ovarian,> 100 µM
same,TGI,OVCAR-4 ovarian,> 100 µM
same,TGI,OVCAR-5 ovarian,> 100 µM
same,TGI,OVCAR-8 ovarian,> 100 µM
same,TGI,PC-3 prostate,> 100 µM
same,TGI,RPMI-8226 leukemia,87.3 µM
same,TGI,SF-268 CNS,66.8 µM
same,TGI,SF-295 CNS,> 100 µM
same,TGI,SF-539 CNS,> 100 µM
same,TGI,SK-MEL-2 melanoma,52.5 µM
same,TGI,SK-MEL-28 melanoma,> 100 µM
same,TGI,SK-MEL-5 melanoma,47.9 µM
same,TGI,SK-OV-3 ovarian,> 100 µM
same,TGI,SN12C renal,> 100 µM
same,TGI,SNB-19 CNS,> 100 µM
same,TGI,SR leukemia,85.4 µM
same,TGI,SW-620 colon,> 100 µM
same,TGI,T-47D breast,> 100 µM
same,TGI,TK-10 renal,> 100 µM
same,TGI,U251 CNS,> 100 µM
same,TGI,UACC-257 melanoma,> 100 µM
same,TGI,UACC-62 melanoma,> 100 µM
same,TGI,UO-31 renal,27.8 µM
c1ccc(-c2cc(-c3cc(-c4ccccc4)n(-c4ccccc4)n3)nn2-c2ccccc2)cc1,TGI,786-0 renal,> 100 µM
same,TGI,A498 renal,> 100 µM
same,TGI,A549 NSCLC,> 100 µM
same,TGI,ACHN renal,> 100 µM
same,TGI,BT-549 breast,> 100 µM
same,TGI,CAKI-1 renal,> 100 µM
same,TGI,CCRF-CEM leukemia,> 100 µM
same,TGI,COLO 205 colon,> 100 µM
same,TGI,DU-145 prostate,> 100 µM
same,TGI,EKVX NSCLC,> 100 µM
same,TGI,HCC-2998 colon,> 100 µM
same,TGI,HCT-116 colon,> 100 µM
same,TGI,HCT-15 colon,> 100 µM
same,TGI,HOP-62 NSCLC,> 100 µM
same,TGI,HS 578T breast,> 100 µM
same,TGI,HT29 colon,> 100 µM
same,TGI,IGROV1 ovarian,> 100 µM
same,TGI,K-562 leukemia,> 100 µM
same,TGI,KM12 colon,> 100 µM
same,TGI,M14 melanoma,> 100 µM
same,TGI,MALME-3M melanoma,> 100 µM
same,TGI,MCF7 breast,> 100 µM
same,TGI,MDA-MB-231 breast,> 100 µM
same,TGI,MDA-MB-435,> 100 µM
same,TGI,MDA-N,> 100 µM
same,TGI,MOLT-4 leukemia,> 100 µM
same,TGI,NCI-H226 lung,> 100 µM
same,TGI,NCI-H23 lung,> 100 µM
same,TGI,NCI-H460 lung,> 100 µM
same,TGI,NCI-H522 lung,> 100 µM
same,TGI,NCI/ADR-RES ovarian,> 100 µM
same,TGI,OVCAR-3 ovarian,> 100 µM
same,TGI,OVCAR-4 ovarian,> 100 µM
same,TGI,OVCAR-5 ovarian,> 100 µM
same,TGI,OVCAR-8 ovarian,> 100 µM
same,TGI,PC-3 prostate,> 100 µM
same,TGI,RXF 393 renal,> 100 µM
same,TGI,SF-268 CNS,> 100 µM
same,TGI,SF-295 CNS,> 100 µM
same,TGI,SF-539 CNS,> 100 µM
same,TGI,SK-MEL-2 melanoma,> 100 µM
same,TGI,SK-MEL-5 melanoma,> 100 µM
same,TGI,SK-OV-3 ovarian,> 100 µM
same,TGI,SN12C renal,> 100 µM
same,TGI,SNB-19 CNS,> 100 µM
same,TGI,SNB-75 CNS,> 100 µM
same,TGI,T-47D breast,> 100 µM
same,TGI,TK-10 renal,> 100 µM
same,TGI,U251 CNS,> 100 µM
same,TGI,UACC-257 melanoma,> 100 µM
same,TGI,UACC-62 melanoma,> 100 µM
same,TGI,UO-31 renal,> 100 µM
